Reference: patent US12102638B2 (Urovant Sciences GmbH, priority 2017, dated 2024)
Where two headings read alike, the source gives them in different places.

Legend:
[1] = multiple rising dose Phase 1 pharmacokinetics in healthy subjects; type: in vivo, human; details: for concentration at 14 days: plasma, oral, read-out: Ctrough
[2] = test system: human plasma proteins; assay: plasma protein binding; type: in vitro ADME
[3] = test system: healthy subjects; assay: maximum MA4 heart rate in multiple-dose Phase 1 study; type: in vivo, human; details: Day 14
Experimental: More intensive assessments of heart rate and blood pressure were performed in healthy volunteers in several Phase 1 studies. […] Doses ranged from 25 to 400 mg once daily for 7 to 28 days depending on the cohort. Least squares mean and 90% confidence intervals of maximum change from baseline in moving average of heart rate over 4 hours postdose (MA4 HR) are presented in Table 17.

[4] = biological target: CYP3A4 (Homo sapiens, UniProt P08684); assay: in vitro metabolism by CYPs; type: in vitro ADME
[5] = relative bioequivalence of aqueous and non-aqueous tablets; type: in vivo, human; details: 50 mg
Excerpt: An open-label, single-dose, randomized, two-period, two-treatment, two-sequence, crossover Phase 1 study evaluated the relative bioequivalence of two types of tablets with slightly different composition: aqueous tablet (test) and non-aqueous tablet (reference).

[6] = test system: patients with OAB; assay: Phase 2b vital sign changes (HR, SBP, DBP); type: in vivo, human
Excerpt: None led to discontinuation. The overall incidence of orthostatic symptoms was low.
Small differences in the percent of subjects exceeding categorical heart rate and blood pressure thresholds for vibegron were similar to those in the tolterodine arm.

[7] = human, in vivo
[8] = biological target: β2-AR (Homo sapiens, UniProt P07550); assay: competition binding assay, membranes with recombinant β2-AR
[9] = test system: men and women with OAB; assay: Phase 2b study in OAB, efficacy (voiding diary); type: in vivo, human
Excerpt: Part 2 was designed to continue to assess the safety and efficacy of concomitant dosing. […] Subjects in both Part 1 and Part 2 had the option of enrolling in a 1-year extension. Participants were required to keep a voiding diary, recording the occurrence of each strong urge, total incontinence, and urge incontinence episode. Efficacy data for Part 1 and Part 2 are summarized herein.
The total number of urgency incontinence episodes must have exceeded the total number of stress incontinence episodes for all subjects.

[10] = dose-Cmax and dose-AUC models / log-log regression and simulations from Phase 1 data; set-up: species or system human
Experimental: In order to contextualize PK parameters of a 75 mg dose, dose-Cmax and dose-AUC models were created using data from Phase 1 studies.

[11] = test system: healthy subjects
Excerpt: Safety data from 16 Phase 1 studies, which include 15 completed Phase 1 studies and 1 study that was terminated early (this study was terminated for reasons unrelated to efficacy or safety) was collected.

[12] = test system: patients with overactive bladder
Excerpt: A placebo group was included in the main study, and a group that received tolterodine monotherapy was included in the main study and in the extension.

[13] = in vivo
[14] = single-dose PK in patients with moderate hepatic impairment; type: in vivo, human; details: single 100 mg
[15] = vibegron 3 mg once daily, OAB Wet subjects
[16] = vibegron 3 mg once daily, Part 1
[17] = vibegron 15 mg once daily, OAB Wet subjects
[18] = vibegron 15 mg once daily, Part 1
[19] = vibegron 50 mg once daily, OAB Wet subjects
[20] = vibegron 50 mg once daily, Part 1
[21] = vibegron 100 mg once daily, OAB Wet subjects

Chain of β2-AR (P07550 whole entry): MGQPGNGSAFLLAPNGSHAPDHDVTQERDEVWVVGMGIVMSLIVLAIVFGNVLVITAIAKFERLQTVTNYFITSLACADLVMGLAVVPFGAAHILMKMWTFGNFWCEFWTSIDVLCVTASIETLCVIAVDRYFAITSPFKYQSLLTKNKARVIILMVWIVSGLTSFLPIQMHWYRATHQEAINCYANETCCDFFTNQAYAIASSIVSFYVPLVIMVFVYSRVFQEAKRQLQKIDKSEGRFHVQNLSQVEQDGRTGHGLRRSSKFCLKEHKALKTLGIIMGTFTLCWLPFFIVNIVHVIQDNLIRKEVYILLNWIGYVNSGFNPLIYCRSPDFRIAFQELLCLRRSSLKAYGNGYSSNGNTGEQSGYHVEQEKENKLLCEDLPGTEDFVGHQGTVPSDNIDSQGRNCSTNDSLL
Chain of CYP3A4 (P08684 whole entry): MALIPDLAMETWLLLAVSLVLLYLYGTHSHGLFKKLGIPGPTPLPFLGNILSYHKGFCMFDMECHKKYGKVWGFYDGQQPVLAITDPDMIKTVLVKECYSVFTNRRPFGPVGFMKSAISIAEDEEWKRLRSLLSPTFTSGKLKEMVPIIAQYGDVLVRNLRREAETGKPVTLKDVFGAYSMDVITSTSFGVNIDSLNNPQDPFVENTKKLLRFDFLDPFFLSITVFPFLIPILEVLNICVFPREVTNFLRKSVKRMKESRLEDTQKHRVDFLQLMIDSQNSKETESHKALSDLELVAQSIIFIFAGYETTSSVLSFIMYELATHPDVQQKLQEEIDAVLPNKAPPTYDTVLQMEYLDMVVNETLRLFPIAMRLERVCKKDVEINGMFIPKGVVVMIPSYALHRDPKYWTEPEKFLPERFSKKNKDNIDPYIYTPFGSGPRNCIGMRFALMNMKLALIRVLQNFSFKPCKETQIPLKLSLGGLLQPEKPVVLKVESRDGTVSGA

O=C(Nc1ccc(C[C@@H]2CC[C@H]([C@H](O)c3ccccc3)N2)cc1)[C@@H]1CCc2nccc(=O)n21 [vibegron, (6S)—N-[4-[[(2S,5R)-5-[(R)-hydroxy(phenyl)methyl]pyrrolidin-2-yl]methyl]phenyl]-4-oxo-7,8-dihydro-6H-pyrrolo[1,2-a]pyrimidine-6-carboxamide]
fraction of dose excreted at steady state (fe0-24hr, ss) ([1]; 100 mg, elderly subjects): ~17% | fraction of dose excreted at steady state (fe0-24hr, ss) ([1]; 100 and 150 mg, young males): ~14% | steady state exposure (AUC0-24) higher in elderly Japanese than elderly non-Japanese ([1]; Day 14): 35% | steady state Cmax in elderly compared to young males ([1]; QD doses of 100 mg): ~1.3 fold | concentration at 14 days ([1]; both sexes, human, 100 mg, multiple dose 100 mg, after 14 days, Elderly Male and Female): 54.2 ng/mL | Cmax higher in elderly and females than healthy young males ([1]; human, in vivo): 50-70% | Cmax increased in elderly Japanese compared to elderly non-Japanese ([1]; human, in vivo): 82% | steady state AUC in middle-aged females compared to middle-aged males ([1]; human, in vivo): ~1.5 fold | steady state exposures higher in Japanese than non-Japanese young males ([1]; human, in vivo): ~30% | concentration at 14 days ([1]; male, human, 50 mg, multiple dose 50 mg, after 14 days, healthy young males): 15.2 ng/mL | concentration at 14 days ([1]; male, human, 100 mg, multiple dose 100 mg, after 14 days, healthy young males, Japanese): 41 ± 11 ng/mL | concentration at 14 days ([1]; male, human, 100 mg, multiple dose 100 mg, after 14 days, healthy young males): 31.9 ng/mL | t1/2, harmonic mean ± pseudo SD ([1]; multiple dose 150 mg, after 14 days, healthy young males): 79.2 ± 9.2 h | AUC0-24 ([1]; multiple dose 200 mg, after 14 days, healthy young males): 3200 ± 1120 ng·h/mL | t1/2, harmonic mean ± pseudo SD ([1]; multiple dose 400 mg, after 14 days, healthy young males): 58.9 ± 5.9 h | time to steady state concentrations ([1]; once daily dosing): ≤ 7 days | exposures (AUC) higher in females compared with males ([1]; regardless of age): 50% | bound to human plasma proteins [2]: approximately 49% | unbound in plasma [2]: 49% | Maximum MA4 HR change from baseline, LS mean ([3]; 25 mg once daily): 1.47 bpm | Maximum MA4 HR, Difference from Placebo ([3]; 25 mg once daily): −1.60 bpm | Maximum MA4 HR change from baseline, LS mean ([3]; 50 mg once daily): 1.50 bpm | Maximum MA4 HR, Difference from Placebo ([3]; 50 mg once daily): −1.57 bpm | Maximum MA4 HR change from baseline, LS mean ([3]; 100 mg once daily): 3.28 bpm | Maximum MA4 HR change from baseline, LS mean ([3]; 150 mg once daily): 3.17 bpm | Maximum MA4 HR, Difference from Placebo ([3]; 150 mg once daily): 0.10 bpm | Maximum MA4 HR change from baseline, LS mean ([3]; 200 mg once daily): 5.67 bpm | Maximum MA4 HR, Difference from Placebo ([3]; 200 mg once daily): 2.60 bpm | Maximum MA4 HR change from baseline, LS mean ([3]; 300 mg once daily): 9.06 bpm | Maximum MA4 HR, Difference from Placebo ([3]; 300 mg once daily): 5.98 bpm | Maximum MA4 HR change from baseline, LS mean ([3]; 400 mg once daily): 10.33 bpm | Maximum MA4 HR, Difference from Placebo ([3]; 400 mg once daily): 7.26 bpm | CYP responsible for in vitro metabolism [4]: CYP3A4 is the predominant CYP | AUC0-inf GMR test to reference tablet [5]: 100.2% | Cmax GMR test to reference tablet [5]: 107.7% | SBP and DBP mean changes at Week 1 and mean maximum changes over 8 weeks, difference between placebo and vibegron ([6]; 50 mg and 100 mg): < 1 mm Hg | percent of subjects with a change from baseline in DBP >15 mmHg ([6]; 100 mg): 1.3% | HR mean maximum changes over 8 weeks, difference to placebo ([6]; in vivo): < 2 bpm | DBP change from baseline, mean (95% CI) Max, week 1 to 8 ([6]; vibegron 3 mg): 5.03 (3.92, 6.15) mm Hg | DBP change from baseline, mean (95% CI), week 1 ([6]; vibegron 3 mg): −0.37 (−1.69, 0.95) mm Hg | HR change from baseline, mean (95% CI) maximum, week 1 to 8 ([6]; vibegron 3 mg): 5.57 (4.25, 6.90) bpm | HR change from baseline, mean (95% CI), week 1 ([6]; vibegron 3 mg): 0.36 (−0.90, 1.62) bpm | SBP change from baseline, mean (95% CI) maximum, week 1 to 8 ([6]; vibegron 3 mg): 7.14 (5.18, 9.10) mm Hg | SBP change from baseline, mean (95% CI), week 1 ([6]; vibegron 3 mg): −0.35 (−2.34, 1.65) mm Hg | DBP change from baseline, mean (95% CI) Max, week 1 to 8 ([6]; vibegron 15 mg): 6.37 (5.20, 7.53) mm Hg | DBP change from baseline, mean (95% CI), week 1 ([6]; vibegron 15 mg): 0.03 (−1.52, 1.59) mm Hg | HR change from baseline, mean (95% CI) maximum, week 1 to 8 ([6]; vibegron 15 mg): 6.56 (5.20, 7.92) bpm | HR change from baseline, mean (95% CI), week 1 ([6]; vibegron 15 mg): 0.35 (−1.15, 1.85) bpm | SBP change from baseline, mean (95% CI) maximum, week 1 to 8 ([6]; vibegron 15 mg): 8.93 (7.18, 10.67) mm Hg | SBP change from baseline, mean (95% CI), week 1 ([6]; vibegron 15 mg): −0.34 (−2.46, 1.78) mm Hg | DBP change from baseline, mean (95% CI) Max, week 1 to 8 ([6]; vibegron 50 mg): 4.19 (3.10, 5.29) mm Hg | DBP change from baseline, mean (95% CI), week 1 ([6]; vibegron 50 mg): −0.70 (−2.07, 0.67) mm Hg | HR change from baseline, mean (95% CI) maximum, week 1 to 8 ([6]; vibegron 50 mg): 5.49 (4.28, 6.69) bpm | HR change from baseline, mean (95% CI), week 1 ([6]; vibegron 50 mg): 0.29 (−0.88, 1.46) bpm | SBP change from baseline, mean (95% CI) maximum, week 1 to 8 ([6]; vibegron 50 mg): 7.01 (5.31, 8.70) mm Hg | SBP change from baseline, mean (95% CI), week 1 ([6]; vibegron 50 mg): −0.79 (−2.65, 1.08) mm Hg | DBP change from baseline, mean (95% CI) Max, week 1 to 8 ([6]; vibegron 100 mg): 4.80 (3.88, 5.72) mm Hg | DBP change from baseline, mean (95% CI), week 1 ([6]; vibegron 100 mg): −0.69 (−1.72, 0.34) mm Hg | HR change from baseline, mean (95% CI) maximum, week 1 to 8 ([6]; vibegron 100 mg): 6.12 (5.10, 7.15) bpm | HR change from baseline, mean (95% CI), week 1 ([6]; vibegron 100 mg): 0.35 (−0.69, 1.38) bpm | SBP change from baseline, mean (95% CI) maximum, week 1 to 8 ([6]; vibegron 100 mg): 6.51 (5.09, 7.93) mm Hg | SBP change from baseline, mean (95% CI), week 1 ([6]; vibegron 100 mg): −0.77 (−2.22, 0.68) mm Hg | dose recovered in feces [7]: approximately 59% | dose recovered in urine [7]: ~20% | binding to β2-AR [8]: does not bind | dose-response relationship ([9]; between 50 and 100 mg once daily): relatively shallow dose-response relationship | Total Incontinence Episodes, difference from placebo Week 8, LS means [9, 15]: −0.18 | Urgency Incontinence Episodes, difference from placebo Week 8, LS means [9, 15]: −0.28 | Micturitions, difference from placebo Week 8, LS means [9, 16]: −0.46 | Urgency Episodes, difference from placebo Week 8, LS means [9, 16]: −0.18 | Total Incontinence Episodes, difference from placebo Week 8, LS means [9, 17]: −0.48 | Urgency Incontinence Episodes, daily number, Week 8 mean [9, 17]: 1.12 | Urgency Incontinence Episodes, difference from placebo Week 8, LS means [9, 17]: −0.57 | Micturitions, difference from placebo Week 8, LS means [9, 18]: −0.45 | Urgency Episodes, difference from placebo Week 8, LS means [9, 18]: −0.67 | Total Incontinence Episodes, difference from placebo Week 8, LS means [9, 19]: −0.60 | Urgency Incontinence Episodes, difference from placebo Week 8, LS means [9, 19]: −0.72 | Micturitions, difference from placebo Week 8, LS means [9, 20]: −0.64 | Urgency Episodes, difference from placebo Week 8, LS means [9, 20]: −0.76 | average number of daily micturitions compared to placebo at Week 8 ([9]; vibegron 100 mg and 50 mg treatment groups, Part 1): statistically significant decreases | Total Incontinence Episodes, daily number, Week 8 mean [9, 21]: 1.12 | Total Incontinence Episodes, difference from placebo Week 8, LS means [9, 21]: −0.58 | Urgency Incontinence Episodes, difference from placebo Week 8, LS means [9, 21]: −0.71 | Micturitions, difference from placebo Week 8, LS means ([9]; vibegron 100 mg once daily, Part 1): −0.91 | Micturitions, difference in LS means 100 mg − 50 mg ([9]; week 8): −0.27 | Total incontinence, difference in LS means 100 mg − 50 mg ([9]; week 8): 0.02 | Urgency Episodes, difference in LS means 100 mg − 50 mg ([9]; week 8): −0.48 | Urgency incontinence, difference in LS means 100 mg − 50 mg ([9]; week 8): 0.01 | AUC of 75 mg lower than 200 mg single dose [10]: ~2 fold | AUC of 75 mg lower than 400 mg single dose [10]: ~6 fold | Cmax of 75 mg lower than 200 mg single dose [10]: approximately 3.3 fold | Cmax of 75 mg lower than 400 mg single dose [10]: ~9.2 fold | increase in Cmax on increase in dose from 50 to 100 mg [10]: ~3 fold | reduction in Cmax on decreasing the dose from 100 mg to 75 mg [10]: ~40% | postural dizziness, dose relation ([11]; Phase 1 multiple dose studies): appeared to increase at doses ≥100 mg | treatment-emergent serious adverse events (SAEs) or deaths ([11]; Phase 1 program): no treatment-emergent serious adverse events (SAEs) or deaths reported | incidence of AE orthostatic hypotension with symptoms, dose relation ([11]; Phase 1 studies): higher at vibegron doses greater than 150 mg | laboratory safety parameters and ECG parameters ([11]; preliminary Phase 1 safety data): no clinically meaningful changes | tolerability across the Phase 1 program ([11]; single doses 2 to 600 mg, multiple doses 25 to 400 mg up to 28 days): generally well tolerated | orthostatic AEs on coadministration with metoprolol or amlodipine ([11]; vibegron 100 mg, subjects with essential hypertension): no occurrences of orthostatic AEs | Accidental overdose, % ([12]; Vibegron 3 mg, N = 144, first 12 weeks): (2.1) % | Accidental overdose, % ([12]; Vibegron 15 mg, N = 134, first 12 weeks): (4.5) % | Accidental overdose, % ([12]; Vibegron 50 mg, N = 148, first 12 weeks): (2.7) % | Accidental overdose, % ([12]; Vibegron 100 mg, N = 261, first 12 weeks): (4.2) % | frequency of injuries ([12]; human, in vivo): 0.9% | severe TEAEs, SAEs or deaths [13]: no severe TEAEs, SAEs or deaths | CL/F, geometric mean ([14]; Healthy Matched Control Subjects): 68.3 L/h | CL/F, geometric mean ([14]; Moderate Hepatic Impairment): 56.0 L/h
